Test results from patent publication US20260139254A1, “INTERFERING RNA FOR INHIBITING TOP1 GENE EXPRESSION AND USE THEREOF” (JENKEM TECHNOLOGY CO., LTD. (BEIJING), priority 2022, published 2026).

What was measured:
Type in all cases: cell-based, human
TOP1 mRNA [1] = experiment: Inhibitory effect of siTOP1 on TOP1 mRNA in A375 cells (Lipofectamine RNAiMAX transfection, Q-PCR); conditions: A375, siRNA 50 nM, 48 h after transfection; for Relative expression level of gene, mean value: Blank = 100.00, GAPDH reference
Procedure: • 1) On the day before transfection, A375 melanoma cells were seeded into a 24-well plate at 6×10^4 to 8×10^4 cells/well, the culture medium being 500 μL of DMEM containing 10% FBS and 1% Penicillin-Streptomycin, and the plate was placed in an incubator with 5% CO2 at 37° C. for 24 h to allow the cells to adhere to the wall. Three replicate wells were made for each group. • 2) On the day of transfection, the culture medium was changed to 450 μL of DMEM culture medium without antibiotics (containing 10% FBS). • 3) The siRNAs were diluted with 25 μL of Opti-MEM culture medium; the siNC (the siNC (reference: O Sordet et al., 2008) having the target sequence of 5′-TTCTCCGAACGTGTCACGT-3′ (SEQ ID NO: 46)) at the same concentration was the negative control group; Lipofectamine™ RNAiMAX (Lipo) transfection reagent was diluted with another 25 μL of Opti-MEM culture medium and left to stand at room temperature for 5 min; and the two dilutions were uniformly mixed and left to stand at room temperature for 5 min. • 4) 50 μL of the mixed solution described above was added to each well to obtain a final transfection volume of 500 μL. and the working concentration of the siRNA was 50 nM. • 5) After the transfection, the cells were cultured for 48 h and then collected.
• 1) RNA was extracted using an Eastep™ Super total RNA extraction kit; 300 μL of RNA lysis solution and 300 μL of RNA diluent were added; and the mixture was uniformly mixed and then transferred to a 1.5 mL centrifuge tube. • 2) The mixture was centrifuged at 14000 g for 5 min, and the supernatant was carefully pipetted into a new 1.5 mL centrifuge tube. • 3) A 0.5-fold volume of absolute ethanol was added, and the mixture was uniformly mixed by allowing the tube to be repeatedly upside down 15-20 times. Subsequently, the mixture was transferred to a centrifuge column and centrifuged at 12000 g for 1 min. The filtrate was discarded. • 4) 600 μL of RNA wash buffer was added, and the mixture was centrifuged at 12000 g for 1 min. The filtrate was discarded. • 5) 50 μL of DNase I incubation buffer was added, followed by DNA digestion at room temperature for 15 min. • 6) 600 μL of RNA wash buffer was added, the mixture was centrifuged at 12000 g for 1 min, and the filtrate was discarded. This procedure was repeated once. • 7) The mixture was centrifuged at 14000 g for 2 min to remove the residual RNA wash buffer, and then the centrifuge column was placed in a collection tube. • 8) An appropriate amount of RNase-free H2O was added, and the mixture was left to stand at room temperature for 12 min and centrifuged at 14000 g for 1 min. The collected RNA was preserved at −70° C. for later use.
• 1) The mass and concentration of the RNA were detected using NanoDrop™, and an RNA template was prepared as follows: RNase-free H2O was added to 1 μg of RNA to a volume of 10 μL; the mixture was placed at 70° C. for 5 min and then placed in an ice bath for 5 min for later use. • 2) A reaction system was established according to Table 2:
• 3) The reaction system described above was uniformly mixed and centrifuged to collect the liquid at the bottom of a tube, and the mixture was subjected to the procedures of 25° C. for 5 min, 42° C. for 60 min, and 72° C. for 15 min, thereby giving the cDNA product. • 4) A Q-PCR system was prepared according to Table 3, and the level of TOP1 gene was detected:
GAPDH was used as an endogenous reference, and the sequences of the primers used for detection are as follows: […]

TOP1 mRNA [2] = experiment: Inhibitory effects of modified sequences of siTOP1-1604 on TOP1 mRNA in PC-3 cells; conditions: PC-3, siRNA 50 nM, 48 h after transfection, Blank = 100.00
Procedure: PC-3 human prostate cancer cells were transfected with the modified siTOP1 according to the method in Example 2 at a siRNA working concentration of 50 nM. TOP1 mRNA levels were detected 48 h after the transfection. The control groups were Blank (Opti-MEM at the equal volume), Lipofectamine™ RNAiMAX (Lipo) transfection reagent, and the positive control unmodified siTOP-1604.

A375 melanoma cells = experiment: Inhibition of A375 cell proliferation by siTOP1 (CCK-8); conditions: A375, siRNA 50 nM, 72 h
Procedure: • 1) On the day before transfection, A375 melanoma cells were seeded into a 96-well plate at 2500-3000 cells/well, the culture medium being a total volume of 200 μL of DMEM culture medium containing 7.5% FBS and 1% Penicillin-Streptomycin, and the plate was placed in an incubator with 5% CO2 at 37° C. for 24 h to allow the cells to adhere to the wall. 5 replicate wells were made for each group. • 2) On the day of transfection, the culture medium was changed to 90 μL of reduced serum culture medium without antibiotics and containing 7.5% FBS. • 3) The siRNAs were diluted with an appropriate amount of Opti-MEM culture medium; Lipofectamine™ RNAiMAX (Lipo) transfection reagent was diluted with another appropriate amount of Opti-MEM culture medium and left to stand at room temperature for 5 min; and the two dilutions were uniformly mixed and left to stand at room temperature for 5 min. • 4) 10 μL of the mixed solution described above was added to each well to obtain a final transfection volume of 100 μL, and the working concentration of the siRNA was 50 nM. • 5) The cells were cultured in the incubator with 5% CO2 at 37° C. for 72 h.
After 72 h of transfection, 10 μL of CCK-8 solution was added to each well, and the cells were cultured in the incubator with 5% CO2 at 37° C. for another 4 h. The absorbance value at 450 nm was measured using a microplate reader. Cell viability was calculated according to the following formula: […]

With “siTOP1-1357: siRNA targeting TOP1; target SEQ ID NO: 6, sense strand SEQ ID NO: 21, antisense strand SEQ ID NO: 36 (sense GGCAUGCUGAAGAGACGAAUU; antisense UUCGUCUCUUCAGCAUGCCUU; modified_base 20..21 OTHER; thymine)” the “Relative expression level of gene, mean value” (TOP1 mRNA [1]) was 19.62.

With “siTOP1-1459: siRNA targeting TOP1; target SEQ ID NO: 7, sense strand SEQ ID NO: 22, antisense strand SEQ ID NO: 37 (sense CGGCAUGAUAACAAGGUUAUU; antisense UAACCUUGUUAUCAUGCCGUU; modified_base 20..21 OTHER; thymine)” the “Inhibition of TOP1 expression” value (TOP1 mRNA [1]) was 90.1% and the “Relative expression level of gene, mean value” (TOP1 mRNA [1]) was 9.89.

In the case of “siTOP1-1604-m1: Methylation-modified siTOP1-1604; sense strand SEQ ID NO: 51, antisense strand SEQ ID NO: 52 (sense GUGUGGACAAGAUCCGGAATT; antisense UUCCGGAUCUUGUCCACACTT; DNA at T, 2'-O-methyl at CU, RNA at AG, backbone not given here)”, the “Relative expression level, mean value” (TOP1 mRNA [2]) is reported as 71.77.

For “siTOP1-896: siRNA targeting TOP1; target SEQ ID NO: 3, sense strand SEQ ID NO: 18, antisense strand SEQ ID NO: 33 (sense GGAAAUUCCUAGAACAUAAUU; antisense UUAUGUUCUAGGAAUUUCCUU; modified_base 20..21 OTHER; thymine)”, the “Relative expression level of gene, mean value” (TOP1 mRNA [1]) was 13.05.

In the case of “siTOP1-1776: siRNA targeting TOP1; target SEQ ID NO: 12, sense strand SEQ ID NO: 27, antisense strand SEQ ID NO: 42 (sense GCACAUCAAUCUACACCCAUU; antisense UGGGUGUAGAUUGAUGUGCUU; modified_base 20..21 OTHER; thymine)”, the “Inhibition of TOP1 expression” value (TOP1 mRNA [1]) is reported as 92.6% and the “Relative expression level of gene, mean value” (TOP1 mRNA [1]) is reported as 7.41.

For “siTOP1-1630: siRNA targeting TOP1; target SEQ ID NO: 10, sense strand SEQ ID NO: 25, antisense strand SEQ ID NO: 40 (sense CGAGAAGACUGGAAGUCCAUU; antisense UGGACUUCCAGUCUUCUCGUU; modified_base 20..21 OTHER; thymine)”, the “Cell viability (%), mean value” (A375 melanoma cells) was 43.84%, the “Inhibition of A375 cell proliferation compared to Blank” value (A375 melanoma cells) was “about 56%” and the “Relative expression level of gene, mean value” (TOP1 mRNA [1]) was 17.34.

In the case of “siTOP1-2273: siRNA targeting TOP1; target SEQ ID NO: 13, sense strand SEQ ID NO: 28, antisense strand SEQ ID NO: 43 (sense AGGAUGCAAAGACGAAGAAUU; antisense UUCUUCGUCUUUGCAUCCUUU; modified_base 20..21 OTHER; thymine)”, the “Relative expression level of gene, mean value” (TOP1 mRNA [1]) is reported as 12.54.

In the case of “siTOP1-1261: siRNA targeting TOP1; target SEQ ID NO: 4, sense strand SEQ ID NO: 19, antisense strand SEQ ID NO: 34 (sense GGAUUCUGUAUUAUGGAUAUU; antisense UAUCCAUAAUACAGAAUCCUU; modified_base 20..21 OTHER; thymine)”, the “Relative expression level of gene, mean value” (TOP1 mRNA [1]) is reported as 17.75.

For “siTOP1-628: siRNA targeting TOP1; target SEQ ID NO: 2, sense strand SEQ ID NO: 17, antisense strand SEQ ID NO: 32 (sense CCUCCUAAAGAGGAUAUAAUU; antisense UUAUAUCCUCUUUAGGAGGUU; modified_base 20..21 OTHER; thymine)”, the “Relative expression level of gene, mean value” (TOP1 mRNA [1]) was 24.27.

With “siTOP1-1679: siRNA targeting TOP1; target SEQ ID NO: 11, sense strand SEQ ID NO: 26, antisense strand SEQ ID NO: 41 (sense CCCUGUACUUCAUCGACAAUU; antisense UUGUCGAUGAAGUACAGGGUU; modified_base 20..21 OTHER; thymine)” the “Inhibition of TOP1 expression” value (TOP1 mRNA [1]) was 91.1% and the “Relative expression level of gene, mean value” (TOP1 mRNA [1]) was 8.86.

“siTOP1-1530: siRNA targeting TOP1; target SEQ ID NO: 8, sense strand SEQ ID NO: 23, antisense strand SEQ ID NO: 38 (sense GCUUAACCCUAGUUCACGAUU; antisense UCGUGAACUAGGGUUAAGCUU; modified_base 20..21 OTHER; thymine)” was tested, and the “Inhibition of TOP1 expression” value (TOP1 mRNA [1]) was 90.6% and the “Relative expression level of gene, mean value” (TOP1 mRNA [1]) was 9.44.

For “siTOP1-2585: siRNA targeting TOP1; target SEQ ID NO: 14, sense strand SEQ ID NO: 29, antisense strand SEQ ID NO: 44 (sense GGUUUGGGAAAGAUGGAUAUU; antisense UAUCCAUCUUUCCCAAACCUU; modified_base 20..21 OTHER; thymine)”, the “Inhibition of TOP1 expression” value (TOP1 mRNA [1]) was 91.2% and the “Relative expression level of gene, mean value” (TOP1 mRNA [1]) was 8.84.

In the case of “siTOP1-267: siRNA targeting TOP1; target SEQ ID NO: 1, sense strand SEQ ID NO: 16, antisense strand SEQ ID NO: 31 (sense CAACGAUUCCCAGAUCGAAUU; antisense UUCGAUCUGGGAAUCGUUGUU; modified_base 20..21 OTHER; thymine)”, the “Cell viability (%), mean value” (A375 melanoma cells) is reported as 58.27%, the “Inhibition of A375 cell proliferation compared to Blank” value (A375 melanoma cells) is reported as “about 42%” and the “Relative expression level of gene, mean value” (TOP1 mRNA [1]) is reported as 21.85.

For “siTOP1-2898: siRNA targeting TOP1; target SEQ ID NO: 15, sense strand SEQ ID NO: 30, antisense strand SEQ ID NO: 45 (sense CGAUUAUAUUGGUGCGUUUUU; antisense AAACGCACCAAUAUAAUCGUU; modified_base 20..21 OTHER; thymine)”, the “Inhibition of TOP1 expression” value (TOP1 mRNA [1]) was 93.0% and the “Relative expression level of gene, mean value” (TOP1 mRNA [1]) was 7.05.

In the case of “siTOP1-1282: siRNA targeting TOP1; target SEQ ID NO: 5, sense strand SEQ ID NO: 20, antisense strand SEQ ID NO: 35 (sense CACAAAGAGAGGAUUGCUAUU; antisense UAGCAAUCCUCUCUUUGUGUU; modified_base 20..21 OTHER; thymine)”, the “Inhibition of TOP1 expression” value (TOP1 mRNA [1]) is reported as 93.4% and the “Relative expression level of gene, mean value” (TOP1 mRNA [1]) is reported as 6.64.
